From patent publication US20130130922A1, “ANALYSIS OF METHYLATION SITES” (Centre for Addiction and Mental Health, priority 2011, published 2013)

Test system: Control-Sss reference system (specific and nonspecific DNA fragments)
Test: mTAG labeling, biotinylation, capture on streptavidin beads and multiplex real-time PCR of Control-Sss reference system
Conditions: 50 ng Control-Sss mixed with 300 ng sonicated human brain genomic DNA; 50 μM Ado-6-amine; 1450 nM enzyme; 37° C. 30 min

SssI (Q142A/N370A): His6-tagged M.SssI C5 DNA methyltransferase (CG target site) double-alanine mutant Q142A/N370A
level of nonspecific probe found: less than 1%
yield of captured specific probe containing two SssI target sites: ~80%
